Test results taken from patent publication US8853194B2, “Sterol derivatives and their synthesis and use” (priority 2009, dated 2014).

Experiments:
CAM vessels = assay: CAM assay, effect on tumor angiogenesis; assay type: in vivo, German Roman embryonated eggs; details: 4 ug/embryo, 72 hours incubation
Experimental: A sterile gelatin sponge, previously made into disks with diameter of 5 mm by a hole puncher, was used as sample carrier. […] There were 3 dose groups, wherein 5 μl (low dose group, with a dose volume of 2 μg/embryo), 10 μl (middle dose group, with a dose volume of 4 μg/embryo), and 20 μl (high dose group, with a dose volume of 8 μg/embryo) of the solution were added respectively into gelatin sponge slices by a quantitative liquid transfer. The sponge slices were dried in the sterile environment.
A sterilized egg was placed into a 37° C. incubator with its air chamber upward. In the 7th day, the embryo was positioned on a super-clean bench and sterilized by ethanol, and then it was drilled by a dental drill to form a little hole in the top of the embryo. Egg shell and shell membrane around the hole were carefully removed to form an opening of about 1.2 cm×1.2 cm; after determining a sample-adding site, the air chamber membrane was carefully pricked at the separation place between the chamber and the yolk by a syringe needle; through the prick hole 1-2 drops of sterilized water was injected, which made the chamber membrane and the CAM membrane be separated; after gently removing the upper layer of the chamber membrane with forceps, the CAM membrane in the lower layer was exposed.
A drug-containing carrier was placed, at the junction area of the CAM membrane and the yolk sac membrane, on a site where vessels were less, and then sealed with sterilized transparent adhesive tape to continue to incubate for 72 hours.
After the incubation, the transparent adhesive tape stopped on the top of the air chamber was gently removed by forceps; a mixture of methanol/acetone (1:1, 1-2 ml) was gently added; the room temperature was remained constant for 10 minutes. Then, the CAM membrane was carefully peeled off and placed on a glass slide for observing and taking photos. The effect of the compound on angiogenesis was assessed by counting the numbers of large, middle, small blood vessels radiated by the carrier.

VEGF = details: positive CTX control group, OD at 450 nm
Experimental: Before taking tumors out, blood was collected by eye bleeding from mice in the four groups, i.e. the negative control group, the positive CTX control group, the high dose (32 mg/kg) group and the low dose (16 mg/kg) group.
1.1 Preparing reagents, samples and standards;
1.2 Adding the prepared samples and standards, and reacting for 90 minutes at 37° C.;
1.3 Washing the plate twice, adding biotinylated antibody working solution, and reacting for 60 minutes at 37° C.;
1.4 Washing the plate for three times, adding ABC working solution, and reacting for 30 minutes at 37° C.;
1.5 Washing the plate for five times, adding TMB color liquid, and reacting in dark for 15 minutes at 37° C.;
1.6 Adding TMB stop solution, and measuring OD value at 450 nm.

mouse sarcoma cells S180 = details: 0.02 g/(Kg.d) i.p.
Experimental: (§1) Ascites mice S180 and H22 that had been vaccinated 7 days were sacrificed by cervical, from which ascites were obtained under sterile conditions respectively; the obtained ascites were washed twice with culture medium RPMI1640, and prepared to a 2×10^7/ml suspension in sterile physiological saline. The suspension of cell S180 was inoculated subcutaneously in the right axillas of 40 mice (0.1 ml/mouse) to produce solid tumor models; while the suspension of cell H22 was inoculated in abdominal cavities of 40 mice (0.2 ml/mouse) by conditional means under sterile conditions to produce ascites tumor models.
(§2) 90 mice were randomly divided into 9 groups of 3 types, wherein the first type group was a normal control group, the second type groups were S180 solid tumor groups including a positive (cyclophosphamide) control group, a negative control group, a low dose group and a high dose group, and the third type groups were H22 ascites groups including a positive (cyclophosphamide) control group, a negative control group, a low dose group and a high dose group. There were 10 mice in each group. The experiment was repeated for three times.
(§3) […], the negative control group was injected same volume of corn oil, and the positive control group was injected cyclophosphamide injection solution with the dose of 0.02 g/(Kg.d). The used injection volume was 0.1 ml/mouse and the injection was given as intraperitoneal injection every other day for 15 days. During the 15 days, general activities, fur, feces, etc. of the mice were daily observed. 24 hours after the last administration, mice that had been inoculated subcutaneously with S180 were sacrificed by cervical, from which tumors, thymus and spleen were taken out. After the last administration, mice that had been inoculated in abdominal cavities with H22 were conventionally bred continually, weighted and observed the survival time every day until all the mice in the negative group were dead.
(§4) After finishing the administration in all mice in the solid tumor group, the mice were sacrificed and their spleens and livers were weighed by electronic balance. The spleen index was equivalent to the spleen weight (mg) of mice in each group divided by the weight of the mice, while the liver index was equivalent to the liver weight […] divided by the weight (g) of the mice.
On the next day after drug withdrawal, the mice in the solid-tumor […] group were weighed and sacrificed by cervical, wherein the serum was collected by eye bleeding for later use in subsequent experiments. Tumor tissues were dissected and weighed by electronic balance. The tumor inhibition rate was calculated as follows. Tumor Inhibition Rate(%)=[(mean tumor weight of negative control group−mean tumor weight of treatment group)/mean tumor weight of control group]×100%

mouse hepatoma cells H22 = details: 0.02 g/(Kg.d) i.p.
Experimental: as §1, §2, §3
24 hours after the inoculation of ascites, the weight and the amount of abdominal circumference of the mice in the groups of ascites models were measured. The drug administration and breeding were continued according to different groups, the weight and the abdominal circumference were measured daily until one day before death. The weight increase (g) and abdominal-circumference increase (cm) were calculated. The experiment started on the day of tumor inoculation and ended on the day when all the mice in the negative control group were dead; the time of deaths were recorded, and the survival extending rate was calculated. Survival Extending Rate(%)=[(mean survival days of treatment group−mean survival days of negative control group)/mean survival days of control group]×100%
as §4

| Compound | Large vessels (number of the vessels) (CAM vessels) | Middle vessels (number of the vessels) (CAM vessels) | Small vessels (number of the vessels) (CAM vessels) | OD value of serum VEGF (VEGF) | Liver index (100 g/g) (mouse sarcoma cells S180; S180 mice) | Spleen index (mg/g) (mouse sarcoma cells S180; S180 mice) | Tumor inhibition rate (%) (mouse sarcoma cells S180; S180 sarcoma mice) | Tumor weight (g) (mouse sarcoma cells S180; S180 sarcoma mice) | Weight increase (g) (mouse sarcoma cells S180; S180 sarcoma mice) | Abdominal circumference increase (cm) (mouse hepatoma cells H22; H22 ascites mice) | Survival extending rate (%) (mouse hepatoma cells H22; H22 ascites mice) | Survival time (day) (mouse hepatoma cells H22; H22 ascites mice) | Weight increase (g) (mouse hepatoma cells H22; H22 ascites mice) | Weight increase (mouse hepatoma cells H22; H22 ascites mice, listed as cyclophosphamide) [g] | Liver index (100 g/g) (mouse hepatoma cells H22; ascites mice) | Spleen index (mg/g) (mouse hepatoma cells H22; ascites mice) |
| --- | --- | --- | --- | --- | --- | --- | --- | --- | --- | --- | --- | --- | --- | --- | --- | --- |
| Cc1ccc(C(=O)Nc2ccc(S(=O)(=O)O)c3cc(S(=O)(=O)O)cc(S(=O)(=O)O)c23)cc1NC(=O)c1cccc(NC(=O)Nc2cccc(C(=O)Nc3cc(C(=O)Nc4ccc(S(=O)(=O)O)c5cc(S(=O)(=O)O)cc(S(=O)(=O)O)c45)ccc3C)c2)c1 [Suramin, reference compound] | 3.6 ± 2.0 | 12.4 ± 3.8 | 6.1 ± 3.0 |  |  |  |  |  |  |  |  |  |  |  |  |  |
| O=P1(N(CCCl)CCCl)NCCCO1 (stereo not shown) [Cyclophosphamide, reference compound] |  |  |  | 0.2205 ± 0.0238 | 3.09 ± 0.31^(1)(4) 100 g/g | 2.76 ± 0.64^(1)(4) mg/g | 62.63 | 0.518 ± 0.231^(4) g | 4.76 ± 1.01^(1)(3) g | 2.30 ± 0.66^(2)(4) cm | 57.73 | 15.3 ± 1.06^(4) day | 3.42 ± 1.67^(2)(4) g | 3.42 | 3.26 ± 0.27^(1)(4) 100 g/g | 2.45 ± 0.34^(1)(4) mg/g |
